In patent US20220249376A1, “NANOVESICLES AND ITS USE FOR NUCLEIC ACID DELIVERY” (FUNDACIÓ HOSPITAL UNIVERSITARI VALL D'HEBRON - INSTITUT DE …, priority 2019, published 2022):

System: miR-323a-5p
Experiment: miR-323a-5p expression levels by qPCR after transfection
Format: cell-based
Conditions: SK-N-BE(2), miRNA 50 nM
Description: For in vitro experiments, SK-N-BE(2) neuroblastoma cells were reverse transfected with the addition of the QS-sRNA complexes to complete cell culture medium (IMDM, 10% heat-inactivated foetal bovine serum (FBS) South America Premium (Biowest, Nuaillé, France)) without antibiotics. After overnight (o/n) incubation media was changed for IMDM supplemented with 10% FBS and antibiotics.
Total RNA including small RNAs was extracted using the miRNeasy Mini Kit (Qiagen, Las Matas, Spain). mRNAs were reverse transcribed (0.5 μg total RNA) using Taqman RT kit (#4366596; Applied Biosystems, Thermo Fisher Scientific), and mature miRNA expression analysis was quantified using Taqman microRNA assays (#4440047; Applied Biosystems, Thermo Fisher Scientific) following manufacturer's recommendations. cDNA was quantified by standard RT-qPCR methodology using 2× Power SYBR Green Master Mix (Applied Biosystems, Thermo Fisher Scientific) using the ABI700SDS equipment. […] The relative fold-change Relative quantification of gene expression was performed with a comparative 2^(−ΔΔCT) method (Livak K J, Schmittgen T D. Analysis of relative gene expression data using real-time quantitative PCR and the 2(−Delta Delta C(T)) method. Methods 2001; 25: 402-408).
The RNU44 is as a housekeeping gene, commonly used to normalize the smallRNA content in the analyzed samples. […]

Substance: miRNA naked: miRIDIAN hsa-miR-323a-5p mimic AGGUGGUCCGUGGCGCGUUCGC (SEQ ID NO: 1), not complexed (listed as RNA, chemistry not given here)
- miR-323a-5p expression levels: could not increase
